According to ChEMBL document CHEMBL4765420, “Design, synthesis and biological evaluation of novel HDAC inhibitors with improved pharmacokinetic profile in breast cancer” (Eur J Med Chem, 2020):
Calls of active or inactive are those of the source. The rule behind the calls is not given here.

How the values were obtained:
[1] = molecular target: T1, Protein deacetylase HDAC6 (Homo sapiens, UniProt Q9UBN7); test: Inhibition of recombinant human His-tagged HDAC6 expressed in baculovirus infected insect cells using Ac-Leu-Gly-Lys(Ac)-AMC as substrate measured after 30 mins by fluorescence assay
T1 sequence (Q9UBN7 whole entry): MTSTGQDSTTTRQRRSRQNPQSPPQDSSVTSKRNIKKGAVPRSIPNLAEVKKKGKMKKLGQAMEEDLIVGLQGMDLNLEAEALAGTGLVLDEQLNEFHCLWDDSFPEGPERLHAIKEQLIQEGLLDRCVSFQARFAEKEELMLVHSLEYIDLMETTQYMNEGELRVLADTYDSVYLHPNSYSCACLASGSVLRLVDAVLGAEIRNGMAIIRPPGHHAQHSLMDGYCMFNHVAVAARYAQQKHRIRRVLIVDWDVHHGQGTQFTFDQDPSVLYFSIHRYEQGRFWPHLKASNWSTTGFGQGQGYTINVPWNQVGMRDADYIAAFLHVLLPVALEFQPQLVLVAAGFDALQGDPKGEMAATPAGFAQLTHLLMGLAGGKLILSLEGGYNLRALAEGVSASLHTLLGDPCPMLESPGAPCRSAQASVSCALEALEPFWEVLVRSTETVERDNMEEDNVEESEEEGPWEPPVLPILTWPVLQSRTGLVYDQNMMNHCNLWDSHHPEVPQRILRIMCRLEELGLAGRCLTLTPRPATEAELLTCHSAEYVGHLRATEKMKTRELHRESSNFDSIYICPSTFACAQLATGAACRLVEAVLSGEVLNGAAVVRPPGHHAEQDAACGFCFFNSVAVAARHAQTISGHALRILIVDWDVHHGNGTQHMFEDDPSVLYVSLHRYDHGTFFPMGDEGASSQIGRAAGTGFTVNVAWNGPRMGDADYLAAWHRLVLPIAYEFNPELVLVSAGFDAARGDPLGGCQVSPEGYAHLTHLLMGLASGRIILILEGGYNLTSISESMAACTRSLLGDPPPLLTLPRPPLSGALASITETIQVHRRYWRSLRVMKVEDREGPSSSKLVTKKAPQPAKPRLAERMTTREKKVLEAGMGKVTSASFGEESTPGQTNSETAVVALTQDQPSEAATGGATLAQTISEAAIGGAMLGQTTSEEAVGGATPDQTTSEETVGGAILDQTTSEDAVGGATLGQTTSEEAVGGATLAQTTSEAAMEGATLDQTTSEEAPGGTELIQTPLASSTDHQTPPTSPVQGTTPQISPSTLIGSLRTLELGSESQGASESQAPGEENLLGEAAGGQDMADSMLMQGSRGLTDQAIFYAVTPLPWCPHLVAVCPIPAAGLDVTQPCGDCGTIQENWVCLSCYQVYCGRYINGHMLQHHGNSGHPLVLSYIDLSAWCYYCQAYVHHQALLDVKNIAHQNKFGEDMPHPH

[2] = test system: MDA-MB-231; test: Antiproliferative activity against human MDA-MB-231 cells measured after 24 hrs by MTT assay; format: functional, cell-based; details: MDA-MB-231, 24 h
[3] = molecular target: Histone deacetylase 1 (Homo sapiens, UniProt Q13547); test: Inhibition of recombinant human His-tagged HDAC1 expressed in insect cells using Ac-Leu-Gly-Lys(Ac)-AMC as substrate measured after 30 mins by fluorescence assay
Histone deacetylase 1, sequence (Q13547 whole entry): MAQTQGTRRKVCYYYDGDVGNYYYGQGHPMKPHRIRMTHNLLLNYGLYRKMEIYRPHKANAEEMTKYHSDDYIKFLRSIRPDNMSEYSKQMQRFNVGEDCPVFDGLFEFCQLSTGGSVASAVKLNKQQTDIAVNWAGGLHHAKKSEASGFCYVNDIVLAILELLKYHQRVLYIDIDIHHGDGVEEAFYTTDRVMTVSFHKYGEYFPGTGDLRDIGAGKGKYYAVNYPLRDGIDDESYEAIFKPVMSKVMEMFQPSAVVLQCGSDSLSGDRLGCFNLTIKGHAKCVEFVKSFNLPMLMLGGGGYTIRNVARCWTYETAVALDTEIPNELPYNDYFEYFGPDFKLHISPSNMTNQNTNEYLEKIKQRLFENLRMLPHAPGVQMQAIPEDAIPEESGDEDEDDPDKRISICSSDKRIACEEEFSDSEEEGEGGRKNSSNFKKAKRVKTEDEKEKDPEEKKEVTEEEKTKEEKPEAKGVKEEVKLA

[4] = molecular target: Histone deacetylase 2 (Homo sapiens, UniProt Q92769); test: Inhibition of human full-length C-terminal FLAG-tagged HDAC2 expressed in baculovirus infected Sf9 insect cells using Ac-Leu-Gly-Lys(Ac)-AMC as substrate measured after 30 mins by fluorescence assay; format: cell-based
Histone deacetylase 2, sequence (Q92769 whole entry, the tested form may be a part): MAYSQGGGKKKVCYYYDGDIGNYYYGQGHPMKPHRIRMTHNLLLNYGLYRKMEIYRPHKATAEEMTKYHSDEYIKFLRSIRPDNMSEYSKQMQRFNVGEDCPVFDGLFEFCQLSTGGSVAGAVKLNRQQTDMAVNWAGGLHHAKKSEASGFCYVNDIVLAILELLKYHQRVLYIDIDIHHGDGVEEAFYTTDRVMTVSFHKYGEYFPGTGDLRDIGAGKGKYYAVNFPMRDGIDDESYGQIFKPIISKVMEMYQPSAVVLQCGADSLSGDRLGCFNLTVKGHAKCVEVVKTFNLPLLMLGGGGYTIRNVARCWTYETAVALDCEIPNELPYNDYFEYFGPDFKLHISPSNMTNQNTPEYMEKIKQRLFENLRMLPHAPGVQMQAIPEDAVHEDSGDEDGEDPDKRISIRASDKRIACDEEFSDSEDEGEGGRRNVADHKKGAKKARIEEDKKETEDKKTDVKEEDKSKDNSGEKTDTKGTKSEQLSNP

[5] = molecular target: Histone deacetylase 3/NCoR1 (Homo sapiens, UniProt O15379); test: Inhibition of recombinant human GST-fused HDAC3/NCOR1 (397 to 503 residues) expressed in baculovirus infected insect cells using Ac-Leu-Gly-Lys(Ac)-AMC as substrate measured after 30 mins by fluorescence assay
[6] = molecular target: T2, Histone deacetylase 8 (Homo sapiens, UniProt Q9BY41); test: Inhibition of recombinant human full-length C-terminal His-tagged HDAC8 expressed in baculovirus infected Sf9 insect cells using Ac-Leu-Gly-Lys(Tfa)-AMC as substrate measured after 30 mins by fluorescence assay
T2 sequence (Q9BY41 whole entry): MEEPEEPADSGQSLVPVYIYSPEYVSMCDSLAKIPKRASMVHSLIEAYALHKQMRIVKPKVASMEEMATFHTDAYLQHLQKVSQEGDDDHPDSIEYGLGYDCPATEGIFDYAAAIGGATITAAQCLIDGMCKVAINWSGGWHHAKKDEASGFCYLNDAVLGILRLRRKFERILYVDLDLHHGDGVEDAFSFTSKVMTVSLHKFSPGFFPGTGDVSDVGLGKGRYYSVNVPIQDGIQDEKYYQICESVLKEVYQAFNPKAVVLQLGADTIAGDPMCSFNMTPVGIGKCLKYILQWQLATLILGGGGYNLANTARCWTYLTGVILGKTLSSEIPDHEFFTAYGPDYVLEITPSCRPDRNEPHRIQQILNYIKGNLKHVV

[7] = molecular target: Histone deacetylase 4 (Homo sapiens, UniProt P56524); test: Inhibition of recombinant human N-terminal GST-tagged HDAC4 (627 to end residues) expressed in baculovirus infected Sf9 insect cells using AcLeu-Gly-Lys(Tfa)-AMC as substrate measured after 30 mins by fluorescence assay
Histone deacetylase 4, sequence (P56524 whole entry): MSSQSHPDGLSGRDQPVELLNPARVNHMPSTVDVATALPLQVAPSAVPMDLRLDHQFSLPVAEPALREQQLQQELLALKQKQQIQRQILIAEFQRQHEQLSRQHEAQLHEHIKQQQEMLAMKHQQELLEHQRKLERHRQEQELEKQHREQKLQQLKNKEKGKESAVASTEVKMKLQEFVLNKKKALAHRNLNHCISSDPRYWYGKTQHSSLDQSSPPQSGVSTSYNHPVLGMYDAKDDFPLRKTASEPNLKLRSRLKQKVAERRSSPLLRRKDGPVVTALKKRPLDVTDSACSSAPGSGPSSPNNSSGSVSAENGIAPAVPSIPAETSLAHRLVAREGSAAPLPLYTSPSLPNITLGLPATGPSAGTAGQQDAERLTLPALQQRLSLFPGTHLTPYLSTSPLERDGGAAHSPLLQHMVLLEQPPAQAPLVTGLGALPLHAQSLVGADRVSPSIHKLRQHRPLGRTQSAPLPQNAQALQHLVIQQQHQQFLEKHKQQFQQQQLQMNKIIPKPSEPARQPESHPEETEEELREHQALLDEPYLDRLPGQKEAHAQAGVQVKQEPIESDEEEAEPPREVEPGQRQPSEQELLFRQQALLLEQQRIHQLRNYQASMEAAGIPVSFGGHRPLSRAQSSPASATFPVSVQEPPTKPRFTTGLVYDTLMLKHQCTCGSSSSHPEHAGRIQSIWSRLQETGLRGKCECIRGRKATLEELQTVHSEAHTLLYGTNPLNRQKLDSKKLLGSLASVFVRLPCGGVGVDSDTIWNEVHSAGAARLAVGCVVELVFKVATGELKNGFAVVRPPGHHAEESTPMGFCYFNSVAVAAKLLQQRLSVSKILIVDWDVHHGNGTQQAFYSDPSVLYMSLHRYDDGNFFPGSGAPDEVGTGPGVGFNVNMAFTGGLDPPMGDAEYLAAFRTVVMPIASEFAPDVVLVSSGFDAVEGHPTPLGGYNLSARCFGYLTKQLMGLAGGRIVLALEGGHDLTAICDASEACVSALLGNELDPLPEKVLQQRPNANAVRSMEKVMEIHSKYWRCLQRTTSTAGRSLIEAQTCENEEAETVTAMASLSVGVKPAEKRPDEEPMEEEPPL

[8] = molecular target: Histone deacetylase 5 (Homo sapiens, UniProt Q9UQL6); test: Inhibition of recombinant human full-length N-terminal GST-tagged HDAC5 expressed in baculovirus infected Sf9 insect cells using AcLeu-Gly-Lys(Tfa)-AMC as substrate measured after 30 mins by fluorescence assay
Histone deacetylase 5, sequence (Q9UQL6 whole entry): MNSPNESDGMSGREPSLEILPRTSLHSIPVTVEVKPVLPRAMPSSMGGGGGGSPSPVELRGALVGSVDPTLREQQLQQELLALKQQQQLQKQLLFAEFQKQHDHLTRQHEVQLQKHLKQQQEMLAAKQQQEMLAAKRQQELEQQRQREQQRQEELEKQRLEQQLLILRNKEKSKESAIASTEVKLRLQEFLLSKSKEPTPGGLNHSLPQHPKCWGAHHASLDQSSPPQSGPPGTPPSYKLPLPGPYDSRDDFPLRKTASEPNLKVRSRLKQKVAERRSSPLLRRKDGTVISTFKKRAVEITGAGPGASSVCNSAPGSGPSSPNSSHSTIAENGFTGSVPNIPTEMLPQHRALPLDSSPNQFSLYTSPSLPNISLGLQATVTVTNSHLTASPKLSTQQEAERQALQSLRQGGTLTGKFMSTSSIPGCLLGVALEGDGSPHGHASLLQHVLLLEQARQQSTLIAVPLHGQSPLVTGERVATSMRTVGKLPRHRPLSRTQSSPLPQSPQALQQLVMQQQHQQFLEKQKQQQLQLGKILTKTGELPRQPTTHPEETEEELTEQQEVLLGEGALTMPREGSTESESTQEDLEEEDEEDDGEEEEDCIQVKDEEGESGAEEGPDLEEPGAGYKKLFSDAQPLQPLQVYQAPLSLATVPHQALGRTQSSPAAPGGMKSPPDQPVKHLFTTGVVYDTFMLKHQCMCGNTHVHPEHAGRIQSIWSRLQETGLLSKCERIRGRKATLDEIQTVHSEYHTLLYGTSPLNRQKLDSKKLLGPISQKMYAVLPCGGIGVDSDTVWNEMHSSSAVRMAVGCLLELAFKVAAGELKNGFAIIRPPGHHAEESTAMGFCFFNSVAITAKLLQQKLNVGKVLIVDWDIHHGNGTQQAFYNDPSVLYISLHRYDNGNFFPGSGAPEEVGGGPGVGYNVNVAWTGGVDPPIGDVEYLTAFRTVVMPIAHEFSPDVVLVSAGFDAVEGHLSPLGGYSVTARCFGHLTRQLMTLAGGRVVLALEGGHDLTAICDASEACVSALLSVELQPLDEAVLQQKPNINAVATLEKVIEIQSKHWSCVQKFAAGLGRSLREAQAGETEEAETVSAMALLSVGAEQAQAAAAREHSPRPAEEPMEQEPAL

[9] = molecular target: T3, Histone deacetylase 7 (Homo sapiens, UniProt Q8WUI4); test: Inhibition of HDAC7 (unknown origin) using AcLeu-Gly-Lys(Tfa)-AMC as substrate measured after 30 mins by fluorescence assay
T3 sequence (Q8WUI4 whole entry): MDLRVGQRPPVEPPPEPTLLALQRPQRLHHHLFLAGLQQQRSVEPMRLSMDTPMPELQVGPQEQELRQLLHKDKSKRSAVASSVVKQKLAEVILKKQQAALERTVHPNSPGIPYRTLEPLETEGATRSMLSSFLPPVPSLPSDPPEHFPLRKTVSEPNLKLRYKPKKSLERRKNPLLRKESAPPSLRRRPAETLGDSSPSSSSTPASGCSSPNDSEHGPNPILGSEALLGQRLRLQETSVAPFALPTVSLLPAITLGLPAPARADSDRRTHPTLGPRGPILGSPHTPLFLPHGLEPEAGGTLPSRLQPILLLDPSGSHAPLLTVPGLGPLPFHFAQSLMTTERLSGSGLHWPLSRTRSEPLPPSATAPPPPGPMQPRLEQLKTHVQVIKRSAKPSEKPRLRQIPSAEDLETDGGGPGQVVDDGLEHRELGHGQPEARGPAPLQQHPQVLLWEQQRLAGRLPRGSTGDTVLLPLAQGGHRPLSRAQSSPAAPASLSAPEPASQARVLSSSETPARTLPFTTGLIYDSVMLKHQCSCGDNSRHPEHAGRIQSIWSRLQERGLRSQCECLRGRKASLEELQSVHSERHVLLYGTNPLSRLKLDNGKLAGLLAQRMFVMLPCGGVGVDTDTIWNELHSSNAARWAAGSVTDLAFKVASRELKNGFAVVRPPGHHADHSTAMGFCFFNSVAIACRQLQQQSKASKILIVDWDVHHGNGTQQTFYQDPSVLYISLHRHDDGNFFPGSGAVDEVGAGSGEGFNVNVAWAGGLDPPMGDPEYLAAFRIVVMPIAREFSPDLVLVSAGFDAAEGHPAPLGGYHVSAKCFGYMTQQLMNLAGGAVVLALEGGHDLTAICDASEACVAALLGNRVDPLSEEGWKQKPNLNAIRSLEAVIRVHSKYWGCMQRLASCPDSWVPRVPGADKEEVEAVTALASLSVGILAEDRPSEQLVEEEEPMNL

[10] = molecular target: Histone deacetylase 9 (Homo sapiens, UniProt Q9UKV0); test: Inhibition of recombinant human full-length N-terminal GST-tagged HDAC9 (1 to 1069 residues) expressed in wheat germ expression system using Ac-Leu-Gly-Lys(Tfa)-AMC as substrate measured after 30 mins by fluorescence assay
Histone deacetylase 9, sequence (Q9UKV0 whole entry, the tested form may be a part): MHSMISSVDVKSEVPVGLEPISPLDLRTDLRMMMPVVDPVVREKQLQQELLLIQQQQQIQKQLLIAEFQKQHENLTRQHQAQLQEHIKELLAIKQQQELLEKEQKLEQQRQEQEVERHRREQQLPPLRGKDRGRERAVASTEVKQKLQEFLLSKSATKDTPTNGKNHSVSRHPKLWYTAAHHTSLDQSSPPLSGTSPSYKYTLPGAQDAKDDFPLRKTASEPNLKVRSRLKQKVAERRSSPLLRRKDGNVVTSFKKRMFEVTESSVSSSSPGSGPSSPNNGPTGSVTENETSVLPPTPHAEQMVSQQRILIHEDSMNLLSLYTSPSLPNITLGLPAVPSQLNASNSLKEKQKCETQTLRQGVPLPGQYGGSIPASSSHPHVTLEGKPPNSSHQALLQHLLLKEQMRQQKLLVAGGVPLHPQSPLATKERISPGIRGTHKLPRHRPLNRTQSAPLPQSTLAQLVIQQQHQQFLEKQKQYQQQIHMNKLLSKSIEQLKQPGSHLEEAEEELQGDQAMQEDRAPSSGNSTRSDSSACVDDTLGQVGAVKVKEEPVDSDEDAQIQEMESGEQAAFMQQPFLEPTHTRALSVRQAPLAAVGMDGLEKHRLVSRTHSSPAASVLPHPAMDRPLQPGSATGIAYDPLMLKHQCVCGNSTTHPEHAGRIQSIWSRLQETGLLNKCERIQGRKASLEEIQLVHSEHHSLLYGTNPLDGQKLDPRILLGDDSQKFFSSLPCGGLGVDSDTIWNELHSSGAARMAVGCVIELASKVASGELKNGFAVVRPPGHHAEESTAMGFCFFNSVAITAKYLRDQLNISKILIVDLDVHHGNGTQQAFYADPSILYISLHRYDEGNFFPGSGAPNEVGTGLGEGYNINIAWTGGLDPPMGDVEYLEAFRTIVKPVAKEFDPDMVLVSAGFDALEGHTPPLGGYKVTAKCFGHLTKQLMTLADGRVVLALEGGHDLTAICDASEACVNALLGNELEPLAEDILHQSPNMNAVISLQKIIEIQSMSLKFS

[11] = molecular target: T4, Histone deacetylase 11 (Homo sapiens, UniProt Q96DB2); test: Inhibition of recombinant human N-terminal His-tagged HDAC11 expressed in baculovirus infected Sf9 insect cells using Ac-Arg-His-Lys(Ac)-Lys(Ac)-AMC as substrate measured after 30 mins by fluorescence assay
T4 sequence (Q96DB2 whole entry): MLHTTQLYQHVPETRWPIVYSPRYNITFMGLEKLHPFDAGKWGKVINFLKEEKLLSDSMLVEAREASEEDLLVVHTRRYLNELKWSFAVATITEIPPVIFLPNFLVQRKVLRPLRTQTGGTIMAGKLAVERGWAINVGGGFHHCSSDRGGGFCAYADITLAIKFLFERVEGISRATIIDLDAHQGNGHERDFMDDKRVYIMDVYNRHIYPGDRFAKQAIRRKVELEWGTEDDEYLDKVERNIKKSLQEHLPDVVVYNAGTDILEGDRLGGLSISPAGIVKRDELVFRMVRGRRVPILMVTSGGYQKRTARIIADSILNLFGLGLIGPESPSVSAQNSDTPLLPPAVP

[12] = Half life in Beagle dog at 20 mg/kg, po by LC-MS/MS analysis; format: ADME, organism-based, Canis lupus familiaris; details: in vivo
[13] = Tmax in Beagle dog at 20 mg/kg, po by LC-MS/MS analysis; format: ADME, organism-based, Canis lupus familiaris; details: in vivo
[14] = Cmax in Beagle dog at 20 mg/kg, po by LC-MS/MS analysis; format: ADME, organism-based, Canis lupus familiaris; design: route oral, dose 20 mg/kg; details: in vivo
[15] = AUC (0 to t) in Beagle dog at 20 mg/kg, po by LC-MS/MS analysis; format: ADME, organism-based, Canis lupus familiaris; design: dose 20 mg/kg; details: in vivo
[16] = AUC (0 to infinity) in Beagle dog at 20 mg/kg, po by LC-MS/MS analysis; format: ADME, organism-based, Canis lupus familiaris; design: route oral, time infinity, dose 20 mg/kg; details: in vivo
[17] = test system: MDA-MB-231; test: Antimetastatic activity against CM-Dil labeled human MDA-MB-231 cells xenografted in Zebrafish AB assessed as reduction in tail metastasis at 2.5 ug/ml measured after 5 days by fluorescence microscopic analysis; format: functional, cell-based; details: dose 2.5 µg/ml, time 5.0 day

Compound	IC50 [1]	IC50 [2]	also measured
COc1cc(OC)c2c(N3CCOC[C@H]3C)nc(-c3cc(C)c(OCCCCCC(=O)NO)c(C)c3)nc2c1	0.102 µM	5.97 µM	
COc1cc(OC)c2c(N3CCOC[C@H]3C)nc(-c3cc(C)c(OCCCCC(=O)NO)c(C)c3)nc2c1	0.22 µM	8.35 µM	
COc1cc(OC)c2c(N3CCS(=O)(=O)CC3)nc(-c3cc(C)c(OCCCCC(=O)NO)c(C)c3)nc2c1	0.13 µM	12.1 µM	
COc1cc(OC)c2c(N3CCOCC3)nc(-c3cc(C)c(OCCCCC(=O)NO)c(C)c3)nc2c1	0.21 µM	7.21 µM	
COc1cc(OC)c2c(N3CCOC[C@@H]3C)nc(-c3cc(C)c(OCCCCC(=O)NO)c(C)c3)nc2c1	0.19 µM	6.6 µM	
COc1cc(OC)c2c(N3CCOC[C@@H]3C)nc(-c3cc(C)c(OCC(=O)NO)c(C)c3)nc2c1	> 20 µM	29.4 µM	
COc1cc(OC)c2c(N3CCOC[C@@H]3C)nc(-c3cc(C)c(OCCCCCC(=O)NO)c(C)c3)nc2c1	0.0985 µM	3.79 µM	
COc1cc(OC)c2c(N3CCSCC3)nc(-c3cc(C)c(OCCCCCC(=O)NO)c(C)c3)nc2c1	0.129 µM	8.89 µM	
COc1cc(OC)c2c(N3CCOC[C@H]3C)nc(-c3cc(C)c(OCC(=O)NO)c(C)c3)nc2c1	> 20 µM	31.3 µM	
COc1cc(OC)c2c(N3CCOC[C@@H]3C)nc(-c3cc(C)c(OCCCC(=O)NO)c(C)c3)nc2c1	0.36 µM	10.8 µM	
COc1cc(OC)c2c(N3CCOCC3)nc(-c3cc(C)c(OCC(=O)NO)c(C)c3)nc2c1	> 20 µM	35.9 µM	
COc1cc(OC)c2c(N3CCOCC3)nc(-c3cc(C)c(OCCCCCC(=O)NO)c(C)c3)nc2c1	0.119 µM	5.54 µM	
COc1cc(OC)c2c(N3CCN(C)CC3)nc(-c3cc(C)c(OCCCCCC(=O)NO)c(C)c3)nc2c1			IC50 [3]: 0.0869 µM; IC50 [4]: 0.0973 µM; IC50 [5]: 0.0792 µM; IC50 [6]: 0.378 µM; IC50 [7]: > 1 µM; IC50 [8]: > 1 µM; IC50 [9]: > 1 µM; IC50 [10]: > 1 µM; IC50 [11]: > 1 µM; t1/2 [12]: 74.4 min; Tmax [13]: 47.4 min; Cmax [14]: 0.12036 µg/mL; AUC(0-t) [15]: 1.28 µg·h/mL; AUC [16]: 1.2894 µg·h/mL
COc1cc(OC)c2c(N3CCOCC3)nc(-c3cc(C)c(OCCCC(=O)NO)c(C)c3)nc2c1	0.35 µM	11.4 µM	
COc1cc(OC)c2c(N3CCS(=O)(=O)CC3)nc(-c3cc(C)c(OCCCC(=O)NO)c(C)c3)nc2c1	0.85 µM	18.4 µM	
COc1cc(OC)c2c(N3CCSCC3)nc(-c3cc(C)c(OCCCCC(=O)NO)c(C)c3)nc2c1	0.29 µM	9.83 µM	
COc1cc(OC)c2c(N3CCSCC3)nc(-c3cc(C)c(OCC(=O)NO)c(C)c3)nc2c1	> 20 µM	37.2 µM	
COc1cc(OC)c2c(N3CCOC[C@H]3C)nc(-c3cc(C)c(OCCCC(=O)NO)c(C)c3)nc2c1	0.33 µM	11.3 µM	
O=C(CCCCCCC(=O)Nc1ccccc1)NO [VORINOSTAT]			t1/2 [12]: 19.2 min; Tmax [13]: 9 min; Cmax [14]: 0.11893 µg/mL; AUC(0-t) [15]: 0.965 µg·h/mL; AUC [16]: 0.96832 µg·h/mL; Activity [17]: Active
COc1cc(OC)c2c(N3CCSCC3)nc(-c3cc(C)c(OCCCC(=O)NO)c(C)c3)nc2c1	0.42 µM	15.7 µM	
COc1cc(OC)c2c(N3CCS(=O)(=O)CC3)nc(-c3cc(C)c(OCC(=O)NO)c(C)c3)nc2c1	> 20 µM	> 50 µM	
